Source: patent publication US20220023450A1, “BONE MARROW-, RETICULOE[…]-, AND/OR LYMPH NODE-TARGETED RA[…] AND METHODS OF THEIR DIAGNOSTIC AND […] USE” (Memorial Sloan Kettering Cancer Center, priority 2018, published 2022)
Read-outs that look alike come from different tables or passages of the source.

Tests used:
[1] = system: peripheral blood cells (WBC, lymphocytes, platelets); assay: Blood cell recovery after sub-lethal total body irradiation (4 Gy); type: in vivo, C57/BL6 mice
Protocol: GT3-Lipo treated 24 h before TBI, GT3-Lipo treated 24 h after TBI, BMT only and no treatment.
FIGS. 3A and 3B a plot of complete blood count (CBC) data showing white blood cell (WBC) recovery after total body irradiation (TBI) (4 Gy) (FIG. 3A), and a plot of lymphocyte recovery after TBI (4 Gy) (FIG. 3B). C57BL6 mice were divided into 4 groups (5 mice per group). (Filled circle) GT3-Lipo treated 24 h before TBI. (Open square) BMT-Lipo treated 24 h before TBI. (Filled square) GT3-Lipo treated 24 h after TBI. (Open circle) No treatment. 10 mg/kg/mice GT3 were treated via i.v. and blood was collected by retro-orbital bleeding on day 0, 1, 4, 7, 14, 21, 43, 57 and 99.
White blood cells (WBC), lymphocytes, and neutrophils decreased to less than 10% of baseline counts with a nadir at day 1-4, post irradiation. […] Recovery of GT3 treated groups reached 100% at day 43. For the untreated group, WBC and lymphocyte counts recovered about 60% at day 43 and WBC and lymphocyte counts never recovered to normal level until day 99. Neutrophil counts decreased to nadir on day 4 for GT3 treated and untreated groups. […] recovered on day 7 and remained relatively the same counts until day 99. Platelet counts increased on day 1 and decreased to nadir on day 14. Platelet counts were recovered to normal level at day 43 and remained the same level until day 99 in all groups.
6- to 8-week-old C57/BL6 mice (Jackson Lab., Bar Harbor, Me.) were used for bone marrow protection from total body irradiation studies. 10 mg/kg GT3 liposomes (6% mol) were administered via i.v. 24 h pre- and post-total body irradiation (4 Gy, […], dose rate=82 cGy/min). No supportive care was given to mice after irradiation. Approximately 100 μL of blood was collected by retro-orbital blood collection for complete blood cell counts at various time points for 100 days.

MDA-MB-468 tumor = assay: Focal radiation therapy of tumor after GT3 administration; type: in vivo; conditions: 10 mg/kg GT3 prior to 11 Gy focal irradiation
From the text: Though GT3 accumulation in the tumor is moderate, there is possibility that GT3 in the tumor might protect tumor during radiation therapy. On the contrary, there are several reports that tocotrienols suppress the proliferation of a wide variety of tumor cells in culture, such as MDA-MB-435, MCF-7, PC-3, LnCaP and DLD-1. Animal studies also have been shown that tocotrienol suppresses the growth of tumors such as 7,12-dimethylbenz(a)anthracene induced mammary tumor, HepG2, and PC-3. To address the question that GT3 protects tumors from irradiation, focal radiation therapy was performed to evaluate the effect of GT3 in the tumor when 10 mg/kg GT3 was administered prior to 11 Gy focal irradiation.

[2] = C57/BL6, mouse, in vivo
Protocol: Mice were sacrificed at the indicated time and major organs were collected and weighed. ^64Cu counting was done as soon as the organs were collected and ^3H counting was measured 5 days after mice were sacrificed. The % ID/g was calculated by measuring weight and time corrected measurement of radioactivity. n=5 per group.
For biodistribution studies, approximately 5.5 MBg of [^64Cu]-DOTA-Bz-DSPE-labeled liposome and 370 kBq of ^3H-GT3 incorporated liposome was intravenously administered to C57/BL6 athymic nude mice (n=5 per group) via tail vein injection. Mice were sacrificed at 24 or 48 h after injection and major organs were collected and placed in pre-weighed culture tubes or Eppendorf tubes. To collect bone marrow, the femur was dipped into liquid nitrogen and one of the epiphyses was carefully removed. A 30 mL syringe with gauge 30½ needles was inserted into one end of the femur; air was blown and bone marrow was collected in the same tubes for radioactivity counting in a gamma counter (PerkinElmer, Inc., Waltham, Mass.). For ^3H activity measurement, major organs were collected in pre-weighed scintillation vials and 500 uL of Soluene®-350 were added. After overnight incubation at 37° C., 4.5 mL of Ecoscint A were added, mixed well, and counted in scintillation counter. Data were presented as percent injected dose per gram (% ID/g) of tissue.

SMILES	platelet counts compared with untreated group ([1]; 4 Gy TBI)	recovery of WBC and lymphocytes compared with untreated group ([1]; 4 Gy TBI, 10 mg/kg GT3 liposomes i.v. 24 h before or after TBI)	recovery of WBC and lymphocyte counts ([1]; day 43 after 4 Gy TBI, 10 mg/kg GT3 liposomes i.v.) [%]	effect on tumor response to focal radiation (MDA-MB-468 tumor)	loss of active drug during the tissue targeting process [2]	Biodistribution, Marrow ([2]; 24 h) [% ID/g]	Biodistribution, Spleen ([2]; 24 h) [% ID/g]	Biodistribution, Marrow ([2]; 48 h) [% ID/g]	Biodistribution, Spleen ([2]; 48 h) [% ID/g]
CC(C)=CCC/C(C)=C/CC/C(C)=C/CC[C@]1(C)CCc2cc(O)c(C)c(C)c2O1 [GT3, (2R)-2,7,8-trimethyl-2-[(3E,7E)-4,8,12-trimethyltrideca-3,7,11-trienyl]-3,4-dihydrochromen-6-ol]	no significant differences	faster and more complete	100	does not protect nor sensitize					
CC(C)=CCC/C(C)=C/CC/C(C)=C/CC[C@]1(C)CCc2cc(O)c(C)c(C)c2O1 [[^3H]-GT3]					approximately 50%	4.28±1.57	7.95±1.63	7.44±2.81	8.26±1.86
